Like-named read-outs stand apart in the source and are kept apart here.
Legend:
Assay type in all cases: binding
FBW7^ARG+pCycE = target: T1, FBW7^ARG+pCycE (Homo sapiens, UniProt Q969H0, R505L); assay: FBW7^ARG-cyclin E agonist ALPHAscreen (primary PRUN, confirmation CRUN1, dose-response DRUN); settings: for EC50 / Emax: DRUN dose-response; for Emax: relative to WT-FBW7+pCycE, read-out: FBW7 ACT Averaged Max % Response
T1 construct: GST (TEV site and flexible linker) (N, cleaved yes); made in house; host or cells: SF9 insect cells (baculovirus)
T1 sequence (Q969H0 64-707 R505L): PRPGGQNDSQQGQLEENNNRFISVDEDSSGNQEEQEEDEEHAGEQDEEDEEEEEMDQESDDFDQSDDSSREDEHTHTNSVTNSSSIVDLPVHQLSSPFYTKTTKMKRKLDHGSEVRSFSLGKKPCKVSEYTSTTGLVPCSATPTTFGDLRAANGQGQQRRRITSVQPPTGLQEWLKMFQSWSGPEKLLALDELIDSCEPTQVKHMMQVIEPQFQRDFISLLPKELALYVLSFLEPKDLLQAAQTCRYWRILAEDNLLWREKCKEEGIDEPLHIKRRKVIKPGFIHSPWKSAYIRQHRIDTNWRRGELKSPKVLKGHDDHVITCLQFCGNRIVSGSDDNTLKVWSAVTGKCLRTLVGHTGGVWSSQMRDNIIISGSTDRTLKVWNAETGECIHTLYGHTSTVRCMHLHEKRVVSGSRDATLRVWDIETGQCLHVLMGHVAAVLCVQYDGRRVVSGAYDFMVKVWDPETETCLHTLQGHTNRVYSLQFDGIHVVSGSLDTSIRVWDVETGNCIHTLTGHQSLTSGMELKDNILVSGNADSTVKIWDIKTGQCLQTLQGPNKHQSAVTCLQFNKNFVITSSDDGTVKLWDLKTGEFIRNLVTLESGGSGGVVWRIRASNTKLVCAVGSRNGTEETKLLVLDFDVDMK
T1 sequence (P63208 2-163 partner): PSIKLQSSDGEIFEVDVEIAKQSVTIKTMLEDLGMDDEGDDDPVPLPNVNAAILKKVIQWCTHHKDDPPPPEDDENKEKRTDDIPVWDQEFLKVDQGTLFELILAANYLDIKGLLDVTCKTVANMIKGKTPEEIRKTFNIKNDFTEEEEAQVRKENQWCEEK
Source text: FBW7^ARG refers to a class of loss-of-function mutations of the of FBW7 ubiquitin ligase that target a key phosphate-binding arginine residue in the FBW7 substrate-binding domain. These mutations are commonly found in human cancers and promote tumorigenesis by impairing the interactions between FBW7 and its substrates, such as cyclin E and Myc. Described herein is a high throughput screen (HTS) to identify agonists, such as small molecules, that augment FBW7^ARG-substrate binding. In an embodiment, the HTS is based on the Amplified Luminescent Proximity Homogenous Assay (ALPHAscreen) because it detects protein-protein interactions with a large dynamic range. ALPHAscreen is a bead-based proximity assay wherein donor beads contain a photosensitizer, phthalocyanine, and acceptor beads contain thioxene, anthracene and rubrenein in sufficient quantities to generate a chemiluminescence/fluorescence reaction (FIG. 4A). Upon excitation with excitation illumination, such as light having a wavelength of 680 nm, of the donor beads, phthalocyanine converts ambient oxygen to singlet oxygen, which can diffuse approximately 200 nm within its 4-microsecond half-life. If an acceptor bead is in close proximity to an excited donor bead, singlet oxygen transfers its energy to the acceptor, resulting in emitted light at a broad bandwidth of −520-620 nm. The HTS-compatible FBW7/cyclin E ALPHAscreen assay described herein uses streptavidin coupled donor beads and Ni-chelate acceptor beads. In this assay, biotinylated cyclin E phosphopeptide and the His-tagged FBW7 mutant protein have high affinity for the donor and acceptor beads, respectively (FIG. 4B). A small molecule that is able to bridge the binding sites of the peptide and the mutant protein (or induce a conformational change that increases affinity of the protein for the peptide) will bring the donor and acceptor beads in close proximity to each other, resulting in an ALPHA signal. As designed, this assay format is a very sensitive, non-radioactive, homogenous “mix-and-read” format that is HT compatible in 384 and 1536 well formats.
In the 384-well screening assay, 10 uL of acceptor beads with 25 nM of the FBW7^ARG (RLFBW7) are dispensed to test wells; acceptor beads with 25 nM of the wt-FBW7 protein (WTFBW7) are dispensed to control wells. Test compounds are then added by pintool transfer and the mixture is incubated for 30 minutes. An additional 10 uL of donor beads with 25 nM cyclin E phosphopeptide is then added to all wells and the plate is incubated for 4 hours before the ALPHA signal is measured.
In preparation for large-scale screening, the assay was miniaturized to a 1536-well format. The miniaturized screen performed outstandingly in all respects. The screen was enhanced with respect to several parameters and assayed its performance using mutant FBW7 and wt-FBW7, as well as non-specific assay agonists. […] For example, the following Z′-scores/FBW7 concentrations were obtained: 6.25 nM/Z′=0.62, 12.5 nm/Z′=0.85, 25.0 nM/Z′=0.84.
1. Add 2.5 uL of RLFBW7/cycE˜P/Ni beads: Final [25 nM/25 nM/10 ug/ml].
2. Add 2.5 uL of WTFBW7/cycE˜P/Ni beads: Final [25 nM/25 nM/10 ug/ml].
4. Add 2.5 uL of SA beads to all wells Final [10 ug/ml],
5. Add 30 nL of compounds,
6. Read ALPHAscreen on Envision
The large-scale FBW7 agonist ALPHAscreen was completed using FBW7^ARG and a phosphorylated cyclin E (pCycE) degron peptide. Wt-FBW7+pCycE-peptide was the “high control”, and Wt-FBW7+unphosph. CycE peptide was the “low control”. The screen was performed on the 645,000-compound Scripps Diversity Library using 1536-well format and drug concentrations of 26.1 μM. An algorithm aided hit identification based on the average percent activation for all compounds and their standard deviation.
A confirmation assay of all 853 compounds in triplicate using a single concentration (26.1 μM). […]

FBW7^ARG (RLFBW7) alone = target: T2, FBW7^ARG (RLFBW7) alone (Homo sapiens, UniProt Q969H0, R505L); assay: Counterscreen 1 ALPHAscreen with FBW7^ARG alone (CSRUN1/DCSRUN1); settings: dose-response counterscreen; for Emax: read-out: RLFBW7 ACT DCSRUN1 Averaged Max % Response
T2 construct: GST (TEV site and flexible linker) (N, cleaved yes); made in house; host or cells: SF9 insect cells (baculovirus)
T2 sequence (Q969H0 64-707 R505L): as the sequence (Q969H0 64-707 R505L) above
T2 sequence (P63208 2-163 partner): as the sequence (P63208 2-163 partner) above
Experimental: (§1) Studies in 384-well format were performed using the ENVISION system. Reagent concentrations (see FIG. 6A), order of addition, pH (see FIG. 6B), and reducing agent were altered with the goal of enhancing the dynamic range between wt-FBW7 (the positive control) and FBW7^ARG (FIG. 6 and not shown). Wt-FBW7 produced a signal 100× greater with phosphorylated cyclin E degron peptide compared with unphosphorylated, which represents the assay's maximum range (FIG. 6C). […] This assay thus detects the residual affinity of the FBW7^ARG-substrate interaction, which, as predicted, is stronger than wt-FBW7 protein with unphosphorylated cyclin E peptide. Concurrent with this primary assay, counter ALPHAscreens were developed which omitted either FBW7 or peptide (to eliminate hits that are general ALPHAscreen agonists), or used an irrelevant phosphopeptide (to eliminate compounds that simply augment binding to phosphopeptides). […]
(§2) The 77 hits were subjected to a dose-response assay in which each compound was tested in triplicate in a 10 point 3-fold dilutional series, to a maximum concentration of approximately 87 μM. Three screens were performed, using FBW7^ARG+pCycE (DRUN), FBW7^ARG (DCSRUN1), or pCycE alone (DCSRUN2). See TABLES 2, 3, and 4, respectively, and FIG. 10A. All of the assays performed extremely well, and threshold of 10% activation (relative to WT-FBW7+pCycE) was set as positive. […] Many hits fell into shared structure cluster ID groups, reinforcing the idea that they function as specific agonists (see below and TABLE 5).

pCycE alone = assay: Counterscreen 2 ALPHAscreen with cyclin E phosphopeptide alone (CSRUN2/DCSRUN2); settings: for CyCEP ACT DCSRUN2 Averaged Max % Response: activation relative to WT-FBW7+pCycE, averaged maximum; for EC50: dose-response, triplicate, 10 point 3-fold dilutional series, read-out: CyCEP ACT DCSRUN2 Final EC50
Experimental: as §1, §2

[1] = raw curve fit, read-out: FBW7 ACT EC50 Curve Fit Raw, Molar
[2] = triplicate, 10 point 3-fold dilution, max approx. 87 μM, read-out: FBW7 ACT Final EC50, Molar
[3] = confirmation assay, triplicate, single concentration 26.1 μM, read-out: FBW7 ACT CRUN1 Avg % Response and Stdev
[4] = primary screen, 1536-well, 26.1 μM, FBW7^ARG + pCycE degron peptide, high control wt-FBW7+pCycE, read-out: FBW7 ACT PRUN % Response
[5] = raw curve fit, read-out: RLFBW7 ACT DCSRUN1 EC50 Curve Fit Raw
[6] = read-out: RLFBW7 ACT DCSRUN1 Final EC50

| SMILES | EC50 (FBW7^ARG+pCycE; [1]) [µM] | Emax (FBW7^ARG+pCycE) [%] | EC50 (FBW7^ARG+pCycE; [2]) [µM] | activation at 26.1 µM (FBW7^ARG+pCycE; [3]) [%] | activation at 26.1 µM (FBW7^ARG+pCycE; [4]) [%] | EC50 (FBW7^ARG (RLFBW7) alone; [5]) [µM] | Emax (FBW7^ARG (RLFBW7) alone) [%] | EC50 (FBW7^ARG (RLFBW7) alone; [6]) [µM] | CyCEP ACT DCSRUN2 Averaged Max % Response (pCycE alone) [%] | EC50 (pCycE alone) [µM] |
| --- | --- | --- | --- | --- | --- | --- | --- | --- | --- | --- |
| NC(c1nc2cc(-c3ccncc3)cnc2[nH]1)c1ccc(F)cc1F.O=C(O)C(F)(F)F (stereo not drawn) [SR-00000003416-1] | 8.8 | 16.4 | > 65.3 | 3.91 ± 0.47 | 3.51 | 4 | 0.2 | > 65.3 | 0.29 | > 65.3 |
| O=C([C@H]1CC[C@H](Nc2nccc(-c3ccc4nc(C5CC5)nc(O)c4c3)n2)CC1)N1CCCC1 [SR-00000008677-1] |  | 35.9 | > 65.3 | 4.42 ± 0.03 | 2.63 | 0.0572 | 0.06 | > 65.3 |  |  |
| CCc1ccc(N2CC(C(=O)NCC(C)(C)CNC(=O)C3CC(=O)N(c4ccc(CC)cc4)C3)CC2=O)cc1 (stereo not drawn) [SR-01000537224-1] | 7.1 | 16.5 | > 40.4 | 7.38 ± 0.72 | 4.51 | 0.0053 | 2.4 | > 40.4 |  |  |
| COc1cc2c(cc1OC)C(COc1ccc([N+](=O)[O-])cc1)N(C(=O)c1ccc3c(c1)OCO3)CC2 (stereo not drawn) [SR-01000568734-1] | 9.2 | 16 | > 49.8 | 3.13 ± 0.23 | 2.1 |  | 1.58 | > 49.8 |  |  |
| COc1ccccc1N1C(=O)c2ccc(C(=O)Nc3cc([N+](=O)[O-])ccc3O)cc2C1=O [SR-01000236956-1] | 22.1 | 10.6 | > 65.3 | 3.72 ± 0.2 | 2.14 | 21.2 | 2.25 | > 65.3 |  |  |
| Cc1ccnc(N2CCC(C(=O)Nc3ccccc3Br)CC2)n1 [SR-01000330228-1] | 0.0482 | 6.46 | > 65.3 | 3.43 ± 0.23 | 2.08 |  | 0.25 | > 65.3 |  |  |
| CCCOC(=O)C1=C(C)N(CC)C(=O)NC1c1ccccc1[N+](=O)[O-] (stereo not drawn) [SR-01000417871-1] | 8.6 | 17.3 | > 67.2 | 18.3 ± 0.97 | 2.55 | 2.8 | 0.3 | > 67.2 |  |  |

The next lines start with results.

| EC50 (FBW7^ARG+pCycE; [1]) [µM] | Emax (FBW7^ARG+pCycE) [%] | EC50 (FBW7^ARG+pCycE; [2]) [µM] | activation at 26.1 µM (FBW7^ARG+pCycE; [3]) [%] | activation at 26.1 µM (FBW7^ARG+pCycE; [4]) [%] | EC50 (FBW7^ARG (RLFBW7) alone; [5]) [µM] | Emax (FBW7^ARG (RLFBW7) alone) [%] | EC50 (FBW7^ARG (RLFBW7) alone; [6]) [µM] | SMILES | CyCEP ACT DCSRUN2 Averaged Max % Response (pCycE alone) [%] | EC50 (pCycE alone) [µM] |
| --- | --- | --- | --- | --- | --- | --- | --- | --- | --- | --- |
| 24.5 | 21.9 | > 70.9 | 3.34 ± 0.7 | 2.67 | 19.4 | 12 | > 70.9 | CCN(CC)c1ccc2cc(-c3ccccn3)c(=O)oc2c1 [SR-01000033354-1] | 0.43 | > 70.9 |
| 0.0458 | 7.3 | > 56.6 | 10.7 ± 0.62 | 1.88 | 0.136 | -0.031 | > 56.6 | O=C(Nc1ccc2oc(-c3ccc4ccccc4c3)nc2c1)c1cccc(Cl)c1Cl [SR-01000415504-1] |  |  |
| 31.5 | 20 | > 65.3 | 4.71 ± 0.2 | 1.94 | 28.3 | 100 | 28.2 | O=C(NCc1ccc(C(=O)NCCc2ccccn2)cc1)Nc1ccc(-c2cn[nH]c2)cc1 [SR-00000005517-1] |  |  |
| 0.0032 | 11.6 | > 54.6 | 2.82 ± 0.29 | 1.87 |  | 1.99 | > 54.6 | COc1ccc(NC(=O)c2cc(S(=O)(=O)N3CCN(c4ccccn4)CC3)ccc2F)cc1 [SR-01000579121-1] |  |  |
| 7.5 | 23.6 | > 65.3 | 2.88 ± 0.43 | 4.34 | 1.7 | -0.141 | > 65.3 | Cc1cccc(CC(=O)Nc2cnn(-c3cccc(C(=O)N4CCNC(=O)CC4)c3)c2)c1 [SR-01000188911-1] |  |  |

Reference: US20210047278A1, “E3 UBIQUITIN LIGASE AGONISTS, PHARMACEUTICAL COMPOSITIONS INCLUDING THE E3 UBIQUITIN LIGASE AGONISTS, RELATED METHODS OF USE” (FRED HUTCHINSON CANCER RESEARCH CENTER, priority 2018, published 2021)
